Source: patent publication US10000469B2, “Heat shock protein 70 (hsp-70) receptor ligands” (Duke University, priority 2014, dated 2018)
Entries after “also recorded” stand apart in the source; their conditions may differ.

Key:
MCF10A = test: Cell proliferation, MCF10A; type: cell-based; details: non tumorigenic MCF10A
Experimental: Cell Proliferation: Cell proliferation was determined using a Hoechst stain (Sigma, St. Louis, Mo.) to quantify DNA. 5,000 cells of the designated cell line were plated in 96 well plates and treated the next day, designated as time point 0, with the indicated concentration of the specified compound maintained for the duration of the assay. At the indicated time points the media was removed and plated frozen at −80° C. Double distilled H2O was then added and the plates were incubated at 37° C. for 1 hour. After 1 hour the plates were frozen at −80° C. After freezing the plates were thawed and Hoechst stain was diluted 1:1000 in THE buffer (10 mM Tris, 2M NaCl, 1 mM Na2EDTA). The final fluorescence was measured on the Victor X2 plate reader at 355/460 nm, and cell proliferation was determined with the formula: % Cell Proliferation=100×(Sample fluorescence−background fluorescence)/(Control fluorescence−background fluorescence).

[1] = system: PC12 cell line expressing httQ74-GFP; test: Aggregation assay, cell culture model of Huntington's disease; type: cell-based, rat; details: compared to untreated controls
Experimental: Aggregation Assay: The PC12 rat neuronal cell line, which expresses Huntingtin exon 1 containing 74 glutamine repeats is fused to GFP and under the control of a doxycycline promoter was used [Wyttenbach et al. (2001). Polyglutamine expansions cause decreased CRE-mediated transcription and early gene expression changes prior to cell death in an inducible cell model of Huntington's disease. Human molecular genetics 10, 1829-1845]. Cells were treated with HS-72 for 18 hours prior to a doxycycline addition for 48 hours. The soluble and pellet fraction were then separated by centrifugation at 14,000 rpm for 15 minutes and both fractions were assayed for httQ-GFP by solubilizing with SDS followed by western blotting with antibodies against GFP.

Hsc70 = target: T1, Hsc70 (Homo sapiens, UniProt P11142); test: Thermofluor assay, purified Hsc70; type: binding; details: ±ATP
T1 construct: His tag (cleaved yes); made in house
Experimental: Protein Purification: Plasmids were provided for human HSPA1A, HSPA8, and HSPA1A C306D. Plasmids were transformed in Rosetta competent cells and single colonies were picked from streaked LB/ampicillin/chloramphenicol plates. Cultures were grown at 37° C. for 4-6 hours, were cooled to 15° C. and expression was induced overnight with 200 uM isopropyl 1-thio-β-D-galactopyranoside. Cells were pelleted and resuspended in Ni-lysis buffer (50 mM Na2HPO4, 300 mM NaCl, 10 mM Imidazole, 0.05% Tween-20) supplemented with Complete Mini protease inhibitor tablets (Roche, Mannheim, Germany) and […], and then sonicated. The cells were again pelleted and the supernatant was incubated with complete His-Tag purification resin (Roche, Mannheim, Germany) for 5 hours at 4° C. The resin was washed with Ni-wash buffer (50 mM Na2HPO4, 300 mM NaCl, 20 mM Imidazole, 0.05% Tween-20) and eluted with Ni-elution buffer (50 mM Na2HPO4, 300 mM NaCl, 250 mM Imidazole, 0.05% Tween-20). […]
Thermofluor Assay: SYPRO orange (Molecular Probes, Eugene, Oreg.) was diluted 1:1000 in 25 mM HEPES, 5 mM MgCl2, 10 mM KCl (pH 7.5) and purified Hsp70i, Hsc70, Hsp70i C306, or Hsp90, was then added to a final dilution of 0.04 mg/ml. […] A melt curve protocol (25° C. to 90° C., increasing 0.5° C. and a plate reading every 30 seconds) was run on a CFX384 Touch™ Real-Time PCR Detection System (BioRad). […]

T1 sequence (P11142 whole entry): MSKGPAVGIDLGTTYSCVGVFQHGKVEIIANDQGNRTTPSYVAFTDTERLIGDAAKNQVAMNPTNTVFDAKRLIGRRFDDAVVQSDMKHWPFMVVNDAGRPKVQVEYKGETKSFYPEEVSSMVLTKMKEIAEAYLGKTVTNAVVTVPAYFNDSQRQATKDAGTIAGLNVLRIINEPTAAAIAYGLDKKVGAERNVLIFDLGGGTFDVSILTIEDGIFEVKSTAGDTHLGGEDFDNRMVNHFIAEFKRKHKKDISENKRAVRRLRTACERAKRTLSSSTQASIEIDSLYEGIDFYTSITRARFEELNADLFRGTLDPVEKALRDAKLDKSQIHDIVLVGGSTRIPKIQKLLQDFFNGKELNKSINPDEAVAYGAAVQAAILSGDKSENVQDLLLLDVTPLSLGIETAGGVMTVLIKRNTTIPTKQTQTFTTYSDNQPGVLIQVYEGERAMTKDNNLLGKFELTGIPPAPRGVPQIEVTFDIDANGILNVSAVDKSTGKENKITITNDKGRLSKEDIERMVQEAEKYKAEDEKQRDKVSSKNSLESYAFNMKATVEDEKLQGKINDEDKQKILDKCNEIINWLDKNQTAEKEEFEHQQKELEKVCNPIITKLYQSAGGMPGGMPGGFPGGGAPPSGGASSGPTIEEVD

## CCCn1c(NC(=O)[C@H]2CCCN(c3cnccn3)C2)nc2ccccc21 [HS-72, (S)—N-(1-propyl-1H-benzo[d]imidazol-2-yl)-1-(pyrazin-2-yl)piperidine-3-carboxamide]
MCF10A
  cell proliferation: insensitive; also recorded: continue to grow at all concentrations
[1]
  increase of HttQ-GFP in the insoluble associated pellet fraction: 50%
Hsc70
  effect on Tm of Hsc70: does not change
